{"source": "patent US12329852B2", "about": "“Sustained-release 9-cis retinoic acid implantable drug delivery pellets for the prevention of postsurgical edema and lymphedema” (UNIVERSITY OF SOUTHERN CALIFORNIA, priority 2019, dated 2025)", "key": {"tail lymphedema [1]": {"test_system": "tail lymphedema", "assay": "Oral administration, tail lymphedema, lymphatic clearance", "assay_type": "in vivo, BALB/c mice", "conditions": "oral gavage for 6 weeks", "protocol": "(§1) Oral administration experiments were performed on 30 adult BALB/c mice, 12 to 14 weeks old, and weighing between 21 and 30 g. Surgical excision of lymphatic vessels at 20-mm from the base of the tail was performed in order to induce secondary lymphedema. Mice receive 9-cis RA dissolved in sunflower oil via oral gavage for 6 weeks in accordance to the dosing regimes in Table 3."}, "[2]": {"conditions": "mouse, in vivo, po", "protocol": "as §1"}, "tail lymphedema [3]": {"test_system": "tail lymphedema", "assay": "Dermal and epidermal thickness, H&E stained tails", "assay_type": "in vivo, BALB/c mice", "conditions": "0.08 mg/kg daily i.p.; for mean epidermal tail thickness / dermal thickness: mean±standard error", "procedure": "Tail specimens were collected on post-operative day 47. Specimens were harvested to include 1 cm proximal and 1 cm distal the wound, then divided to separate proximal and distal portions. Tails were inked to enable proper orientation, fixed in 10% neutral buffered formalin overnight, decalcified in 10% EDTA (pH: 7.3) for 6 days at 4° C., embedded in paraffin, sectioned at 3-5 μm, then stained with hematoxylin and eosin (H&E) or via immunohistochemical techniques. In summary, sections were deparaffinized, underwent antigen retrieval with sodium citrate buffer, incubated overnight with the primary antibody (1:200) at 4° C., washed, incubated with a suitable secondary antibody (1:200), then stained with immPACT DAB Substrate (Vector Laboratories, Inc, Burlingame, CA) and counterstained with Delafield Hematoxylin (Sigma-Aldrich, USA) diluted 1:4. Podoplanin (clone 8.1.1; sc-53533, Santa Cruz Biotechnology, Inc., Dallas, TX) was used to immunohistochemically mark lymphatics in paraffin embedded tail sections.\nSlides were counterstained with hematoxylin and mounted. All images were obtained with a Keyence BZ-X700 microscope (Itasca, IL) and epidermal and dermal thickness was measured using ImageJ (National Institutes of Health, Betheseda, MD). The thickest part of the epidermis and dermis was measured in 5 high-power fields per section, as previously described. On the immunohistochemically stained slides, podoplanin stained vessels in the dermis and subcutis were quantified in ImageJ. Two high-power fields per section were randomly selected and then analyzed by a blinded reviewer. The reviewer scored the number of podoplanin stained vessels and the area (mm^2) of the dermis and subcutaneous tissue in each image. Lymphatic vessel density was calculated from the absolute lymphatic number normalized to the dermal and subcutaneous area measured (number of lymphatics/mm^2).^2 For the immunofluorescent stained slides, LYVE-1 stained vessels were quantified with ImageJ, to assess included lymphatic density, lymphatic vessel width, inter-lymphatic vessel distance, branching points, loops and blind-ended sacs."}, "hind limb lymphedema": {"test_system": "hind limb lymphedema", "assay": "ICG lymphography of hind limb, lymphatic clearance (implantable pellet)", "assay_type": "in vivo, mouse", "conditions": "postoperative week 6, 3 to 144 hours after ICG injection", "procedure": "At postoperative week 6, lymphatic clearance was measured using indocyanine green (ICG) lymphography to compare lymphatic function between the treatment and placebo groups. After inducing anesthesia via isoflurane inhalation, a sub-microliter injection system syringe was used to intradermally inject 2 uL of ICG on the dorsal aspect of the second and fifth paw digits. ICG lymphography images were recorded at 1, 3, 6, 12, 24, 48, 72, 96, and 144 hours post-injection. The fluorescence intensity of the lymphography images was quantified at each post-injection time point using ImageJ pixel intensity analysis (National Institutes of Health, Bethesda, MD).\nIndocyanine green (ICG) lymphography is a well-established procedure used in clinics by healthcare providers to visualize lymphatic vessels in real-time for the purposes of diagnosis or preoperative planning. When ICG is injected intradermally, it is preferentially picked up and cleared by the lymphatic system. This imaging modality provides rapid visualization of lymphatic vessels and measures lymphatic clearance, acting as a surrogate for lymphatic function. […] Thus, at postoperative week 6 and prior to euthanasia, lymphatic clearance were monitored by quantifying the change in dermal fluorescence of mouse hind limbs injected with ICG."}, "tail lymphedema [4]": {"test_system": "tail lymphedema", "assay": "Mouse tail secondary lymphedema model, tail volume (intraperitoneal injection)", "assay_type": "in vivo, BALB/c mice", "procedure": "All experiments were performed in accordance with the The Guide for the Care and Use of Laboratory Animals (National Research Council, 8th ed, 2011) and the Animal Welfare Act. Our protocol was approved by the University of Southern California Institutional Animal Care and Use Committee. Fifty adult BALB/c mice, 12 to 14 weeks old, weighing between 21 and 30 g were purchased from Jackson Laboratories (Jackson, Bar Harbor, ME). Animals were maintained in a temperature and light-controlled environment with ad libitum access to a normal chow diet and water.\nA previously well described tail model to induce lymphedema was modified in the present experiments. Mice were anesthetized using 2.5% isofluorane, and a 5-mm wide circumferential skin excision was made 20-mm from the base of the tail. Underlying lymphatic vessels were visualized using isosulfan blue and ligated under a dissecting surgical microscope. Daily bacitracin antibiotic ointment was applied to the surgical site to prevent wound infection and desiccation.\nAnimals were randomly assigned to one of five groups following surgery: control, 7 days, 14 days, 45 days, and delay. Mice received daily intraperitoneal injections of either 100 μL vehicle solution (90 μL sunflower seed oil/10 μL 100% ethanol) or 0.08 mg/kg 9-cis RA dissolved in 100 μL of vehicle solution [5]. The treatment administered to each group was: (1) control: vehicle for 45 days following surgery, (2) 7 day: 9-cis RA for 7 days, (3) 14 day: 9-cis RA for 14 days, (4) 45 day: 9-cis RA for 45 days, and (5) delay: 9-cis RA for 7 days beginning one week after surgery. Animals with necrotic tails or that developed surgical site infections were sacrificed and excluded from analysis.\nAnimals were photographed every five days for a 6-week duration, and tail diameter was measured using ImageJ (National Institutes of Health, Bethesda, MD). Measurements were taken at 5-mm intervals from the distal-most edge of the wound for a total of seven measurements per animal for every time point. Total distal tail volume was calculated using the truncated cone formula [8]. Percent change in distal tail volume was recorded, analyzed, and plotted using GraphPad Prism 7 (GraphPad Software, Inc.)."}, "tail lymphedema [5]": {"test_system": "tail lymphedema", "assay": "Indocyanine green lymphangiography of tail (intraperitoneal injection)", "assay_type": "in vivo, BALB/c mice", "conditions": "day 45; for ICG fluorescent intensity compared to control: 48 hours after injection", "procedure": "On Day 45, animals were anesthetized using 2.5% isofluorane, and 5 μL of 2.5 mg/mL indocyanine green (ICG) was injected into the distal end of each animal's tail 15 minutes prior to imaging. The SPY Elite Fluorescence Imaging System (Novadaq Technologies, BC, Canada) was used to capture fluorescent images and heat maps of the tails at 0, 1, 2, 3, 6, 12, 24, and 48 hours following ICG injection. Capture conditions were kept constant throughout the trial. Fluorescent intensity of the tails at each time point was quantified using a previously described method for measuring cell fluorescence in ImageJ [4, 7]. Values were then recorded and plotted using GraphPad Prism 7. Percent change in fluorescent intensity from the peak fluorescent uptake at 6 hours was used to measure ICG clearance."}}, "note": "“Also recorded” adds a separate entry of the source. Read-outs that look alike come from different tables or passages of the source."}
{"smiles": "CC1=C(/C=C/C(C)=C\\C=C\\C(C)=C\\C(=O)O)C(C)(C)CCC1", "note": "[9-cis RA, 9-cis retinoic acid]", "values": [{"measurement": "lymphatic clearance", "setting": "tail lymphedema [1]; high dose 30 mg/kg", "value": "improves lymphatic clearance"}, {"measurement": "lymphatic clearance", "setting": "tail lymphedema [1]; low dose 10 mg/kg", "value": "improves lymphatic clearance"}, {"measurement": "systemic toxicity by liver and kidney function tests (AST, ALT, BUN)", "setting": "[2]; 10 mg/kg", "value": "minimal systemic toxicity"}, {"measurement": "systemic toxicity by liver and kidney function tests (AST, ALT, BUN)", "setting": "[2]; 30 mg/kg", "value": "minimal systemic toxicity"}, {"measurement": "dermal thickening compared to control", "setting": "tail lymphedema [3]; 7-day group", "value": "no significant effect on tail lymphedema or dermal thickening"}, {"measurement": "mean epidermal tail thickness", "setting": "tail lymphedema [3]; 7-day group", "value": "109.2±10.21", "unit": "μm"}, {"measurement": "dermal thickness", "setting": "tail lymphedema [3]; 14-day group", "value": "352.4±21.29", "unit": "μm"}, {"measurement": "mean epidermal tail thickness", "setting": "tail lymphedema [3]; 14-day group", "value": "52.07±2.616", "unit": "μm"}, {"measurement": "dermal thickness", "setting": "tail lymphedema [3]; 45-day group", "value": "525.2±25.09", "unit": "μm"}, {"measurement": "mean epidermal tail thickness", "setting": "tail lymphedema [3]; 45-day group", "value": "83.14±8.099", "unit": "μm"}, {"measurement": "dermal thickness", "setting": "tail lymphedema [3]; delay group", "value": "502±30.17", "unit": "μm"}, {"measurement": "mean epidermal tail thickness", "setting": "tail lymphedema [3]; delay group", "value": "73.51±10.94", "unit": "μm"}, {"measurement": "lymphatic drainage as change in ICG fluorescence compared to control", "setting": "hind limb lymphedema", "value": "significantly faster lymphatic drainage"}, {"measurement": "tail volume compared to control", "setting": "tail lymphedema [4]; 0.08 mg/kg daily i.p. for 7 days", "value": "approached tail volumes similar to the lymphedematous control group past the 4-week time point; also recorded: no significant effect on tail lymphedema or dermal thickening"}, {"measurement": "tail volume compared to control", "setting": "tail lymphedema [4]; 0.08 mg/kg daily i.p. for 7 days beginning one week after surgery (delay group)", "value": "statistically significant decrease in tail volumes from day-14 onwards; also recorded: decreased tail volume"}, {"measurement": "tail volume compared to control", "setting": "tail lymphedema [4]; 0.08 mg/kg daily i.p. for 14 days", "value": "approached tail volumes similar to the lymphedematous control group past the 4-week time point; also recorded: no significant difference in tail volume"}, {"measurement": "tail volume compared to control", "setting": "tail lymphedema [4]; 0.08 mg/kg daily i.p., continuous (45-day/42-day group)", "value": "significantly smaller than the lymphedematous controls"}, {"measurement": "percent change of ICG fluorescent intensity compared to control", "setting": "tail lymphedema [5]; 24 hours after ICG injection, all treatment groups", "value": "significant decrease in the percent change of fluorescent intensity compared to the control"}, {"measurement": "ICG fluorescent intensity compared to control", "setting": "tail lymphedema [5]; 7-day group", "value": "no longer significant from the control"}, {"measurement": "ICG fluorescent intensity compared to control", "setting": "tail lymphedema [5]; 14-day, 42-day and 7-day delayed groups", "value": "significant decrease in fluorescent intensity"}]}
